The test system of one assay is Human serum PLA2. The experiment in a line: PLA2 assay of human serum fractions eluted from MLT-Sepharose column, [3H]-oleic acid-labeled E. coli substrate. Type of assay: biochemical. As to conditions: for PLA2 activity: Melittin 5 μM. The protocol:
(§1) The procedure is a modification of that described by Elsbach and Weiss (1991). E. coli strain SJ198 was grown in 10 ml M9 minimal medium plus 50 μl glycerol, 100 μl vitamin mix, 40 μl methionine (25 mg/ml), 50 μl [^3H]-oleic acid (0.1 μCi/μl), and 100 μl casamino acids (100 mg/ml). After incubation at 37° C. overnight, the culture was centrifuged and washed three times in PBS, autoclaved for 15 minutes, washed again three times in PBS and stored at −70° C. The reaction mixture contained 10 μl of 5×assay of the PLA2 enzyme preparation, 10 μl of [^3H]-oleic acid-labeled E. coli cells, and enough H2O to adjust the total volume to 50 μl. The reaction mixture was incubated for 15 minutes at 37° C. in a waterbath. To stop the reaction, the tubes were transferred immediately to an ice bath and an equal volume of either 1 M HCl or 4 volumes cold PBS was added. After centrifugation in a microfuge at 4° C. for 10 minutes, an aliquot equal to 25% of the volume of the supernatant was used to measure the amount of [^3H]-labeled oleic acid released from the E. coli cells by PLA2 using liquid scintillation counting.
Isolation of PLA2 from human serum: 10 ml of heat-inactivated human serum Gemini Bio Product Inc. (Calabasas, Calif.) was diluted 1:10 with PBS and loaded onto Melittin-Sepharose as well as PLAP-Sepharose columns pre-equilibrated with PBS. Columns were washed with 500 ml of PBS overnight and eluted with 0.5M glycine/HCl buffer, pH 2.8 and 2 ml fractions were collected, neutralized to pH 7.2 with Tris-HCl buffer and analyzed for PLA2 activity using [^3H]labeled oleic acid—E. coli cells as substrate. Eluted fractions were concentrated and dialyzed in centricon 10 (Amicon, Inc., Beverly, Mass.) and the pass through was discarded. The retentate was again passed through centricon 30 and concentrated to about ⅕th of the volume. Both retentate and pass through were subjected to PLA2, assay with and without melittin.

In assay [1] the target is T1, affinity-purified PLA2 enzyme isolated from synovial fluid of rheumatoid arthritis patients (Homo sapiens, UniProt P14555).
T1 construct: from tissue
T1 sequence (P14555 21-144): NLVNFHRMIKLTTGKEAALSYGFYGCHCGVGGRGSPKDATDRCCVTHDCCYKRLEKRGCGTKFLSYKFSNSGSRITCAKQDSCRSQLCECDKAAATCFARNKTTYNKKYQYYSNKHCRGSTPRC
The experiment in a line: PLA2 assay, unsonicated vesicles labeled with [14C]-phosphatidylcholine, affinity-purified enzyme. The class given is biochemical. The protocol:
(§2) Radiolabeled phosphatidylcholine or phosphatidylethanolamine containing [^14C]-arachidonic acid in the sn-2 position of the phospholipid was dried under nitrogen and the lipid vesicles were prepared in 0.05% Triton X-100. The reaction mixture contained 10 μl of phospholipid substrate, 10 μl of 5× assay buffer (500 mM Tris[hydroxymethyl]aminomethane […]HCl (Tris HCl), pH 8.0; 500 mM NaCl; 5.0% fatty acid-free bovine serum albumin (BSA); and 5 mM CaCl2), 10 μl PLA2 enzyme preparation, and sufficient H2O to adjust the total volume to 50 μl The reaction mixture was incubated for 30 minutes at 37° C. in a waterbath and stopped by the addition of 50 μl of chloroform and methanol (1:3), containing 200 μg/ml of unlabeled arachidonic acid and then the mixture was vortexed Lipid was extracted by adding 50 μl of chloroform and 50 μl of 4M KCl, after which, the mixture was vortexed and centrifuged in a microfuge at 14,000 rpm for 10 minutes A 25 μl aliquot of the organic phase was spotted onto glass silica gel plates (Whatman LK6DF) and placed in a thin layer chromatography chamber with a solvent system containing petroleum ether, diethyl ether, and acetic acid (5:25:1) for 30 minutes. The lipid spots were made visible by placing the silica gel plates in a chamber containing iodine vapor. The silica gel region corresponding to arachidonic acid was scraped and transferred to scintillation vials containing 10 ml of scintillation cocktail, which is commercially available and designed to measure the amount of radioactivity in aqueous samples when used with a liquid scintillation counter. The amount of radionuclide corresponding to [^14C]-arachidonic acid in each vial was determined in a Beckman liquid scintillation counter. Results of these assays are shown in Tables 1 and 2 listed after Example 3.

Assay [2] deals with PLA2 from snake venom. The experiment in a line: PLA2 assay using [3H]-oleic acid labeled E. coli. The class given is biochemical. As to conditions: Snake V., peptide 1 μg. The protocol: (§3) PLA2 activity may also be assayed using [^3H]-oleic acid labeled Escherichia coli, in a modification of the procedure previously described by [Elsbach and Weiss, 1991]. E. coli cells grown in the presence of [^3H]-oleic acid are incubated with PLA2 enzyme. The reaction is quenched either by addition of 1M HCl or by dilution in cold phosphate buffered saline (PBS). The amount of [^3H]-oleic acid released from the E. coli cells by PLA2 is measured using scintillation counting.
as §1

For assay [3], the target named is T2, PLA2 from bovine pancreas (Bos taurus, UniProt P00593). The experiment in a line: PLA2 assay using [3H]-oleic acid labeled E. coli. Type of assay: biochemical. As to conditions: Bovine P., peptide 1 μg. The protocol: as §3, §1
T2 sequence (P00593 23-145): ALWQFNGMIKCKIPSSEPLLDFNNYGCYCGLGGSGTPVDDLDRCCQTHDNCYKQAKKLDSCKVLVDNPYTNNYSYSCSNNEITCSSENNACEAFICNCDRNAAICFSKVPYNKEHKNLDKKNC
The target of assay [4] is T3, PLA2 from bee venom (Apis mellifera, UniProt P00630). The class given is biochemical.
In assay [5] the target is T3, PLA2 from bee venom. The experiment in a line: biochemical. Type of assay: biochemical.
Assay [6] deals with PLA2 from synovial fluid from rheumatoid arthritis patients. The experiment in a line: PLA2 assay using unsonicated vesicles. The class given is biochemical, human. As to conditions: Synovial F., peptide 1 μg. How it is done:
(§4) In general, assays involve incubation of purified PLA2 or a mixture believed to contain PLA2, such as synovial fluid, with a PLA2 substrate containing radio-labeled arachidonic acid in the presence of the inhibitor of interest. Suitable substrates for PLA2 reactions include any glycerol-3-phosphate with arachidonic acid substituted at the sn-2 position. The preferred substrates of the assays of this invention include [^14C]-arachidonic acid-substituted phosphatidylcholine or [^14C]-arachidonic acid-substituted phosphatidylethanolamine. After the reaction is stopped by addition of chloroform and methanol, TLC chromatography is used to separate the released [^14C] arachidonic acid from [^14C] arachidonic acid-labeled phosphatidylcholine/ethanolamine, which may be quantified by scintillation counting.
Radiolabeled phosphatidylcholine or phosphatidylethanolamine containing [^14C]-arachidonic acid in the sn-2 position of the phospholipid was dried under nitrogen and the lipid vesicles were prepared in 0.05% Triton X-100. […] The silica gel region corresponding to arachidonic acid was scraped and transferred to scintillation vials containing 10 ml of scintillation cocktail, which is commercially available and designed to measure the amount of radioactivity in aqueous samples when used with a liquid scintillation counter. […]

A further assay concerns phospholipase D (PLD). The experiment in a line: Synthetic melittin added to dissociated membranes from U-937 cells. The class given is biochemical. As to conditions: dissociated membranes from human monocyte cell line U-937.
The subject of assay [7] is PLA2 from snake venom. The experiment in a line: PLA2 assay using unsonicated vesicles. The class given is biochemical. As to conditions: Snake V., peptide 1 μg. How it is done: as §4, §2
The target in assay [8] is T2, PLA2 from bovine pancreas. The experiment in a line: PLA2 assay using unsonicated vesicles. The class given is biochemical. As to conditions: Bovine P., peptide 1 μg. How it is done: as §4, §2
For assay [9], the target named is T1, affinity-purified PLA2 enzyme isolated from synovial fluid of rheumatoid arthritis patients. The experiment in a line: PLA2 assay, [3H]-oleic acid-E. coli, affinity-purified enzyme. The class given is biochemical. As to conditions: mean of three determinations. How it is done: as §1
For assay [10], the system named is PLA2 from synovial fluid from rheumatoid arthritis patients. The experiment in a line: PLA2 assay using [3H]-oleic acid labeled E. coli. Type of assay: biochemical, human. As to conditions: Synovial F., peptide 1 μg. The protocol: as §3
as §1, with “After centrifugation in a microfuge at 4° C. for 10 minutes, an aliquot equal to 25% of the volume of the supernatant was used to measure the amount of [^3H]-labeled oleic acid released from the E. coli cells by PLA2 using liquid scintillation counting.” left out

In another assay the test system is synovial fluid PLA2. The experiment in a line: Interference of streptavidin-peroxidase binding to biotin-melittin by synovial fluid PLA2. Also on record: species or system human. As to conditions: plate coated with biotinylated synthetic melittin, FIG. 6B.
The target of assay [11] is human serum PLA2 (human) (UniProt P04054).
Chain of human serum PLA2 (human) (P04054 23-148 limits assumed): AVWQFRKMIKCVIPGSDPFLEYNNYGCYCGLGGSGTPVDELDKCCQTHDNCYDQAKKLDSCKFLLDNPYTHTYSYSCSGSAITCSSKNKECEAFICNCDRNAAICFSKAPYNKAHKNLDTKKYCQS
The target in assay [12] is PLA2 of synovial fluid from rheumatoid arthritis patients (human (rheumatoid arthritis patients)) (UniProt P14555). The experiment in a line: cell-based or functional assay.
For assay [13], the target named is human serum PLA2 (human) (UniProt P04054). The experiment in a line: cell-based or functional assay.
The target of assay [14] is T4, bee venom PLA2 (bee), P00630.
T4 chain: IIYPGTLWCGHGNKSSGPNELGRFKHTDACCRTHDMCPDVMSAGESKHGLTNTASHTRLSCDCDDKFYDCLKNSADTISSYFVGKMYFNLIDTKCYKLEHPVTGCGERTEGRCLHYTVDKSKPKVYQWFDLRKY
The experiment in a line: cell-based or functional assay.

The mark [15] stands for this setting: C: [3H]-oleic acid-labeled E. coli, stopped with cold PBS.
[16] abbreviates: D: [3H]-oleic acid-labeled E. coli, stopped with 1N HCl.
The mark [17] stands for this setting: A: [14C]-phosphatidylcholine vesicles.
Setting [18] is: B: phosphatidylethanolamine vesicles.

Where “and” joins values, the source holds several entries; their conditions need not be identical. Equal entries are not always repeated.

The EC50 is the concentration at which the effect is half-maximal.

Take `CC[C@H](C)[C@H](NC(=O)CN)C(=O)NCC(=O)N[C@@H](C)C(=O)N[C@H](C(=O)N[C@@H](CC(C)C)C(=O)N[C@@H](CCCCN)C(=O)N[C@H](C(=O)N[C@@H](CC(C)C)C(=O)N[C@H](C(=O)N[C@H](C(=O)NCC(=O)N[C@@H](CC(C)C)C(=O)N1CCC[C@H]1C(=O)N[C@@H](C)C(=O)N[C@@H](CC(C)C)C(=O)N[C@H](C(=O)N[C@@H](CO)C(=O)N[C@@H](Cc1c[nH]c2ccccc12)C(=O)N[C@H](C(=O)N[C@@H](CCCCN)C(=O)N[C@@H](CCCNC(=N)N)C(=O)N[C@@H](CCCCN)C(=O)N[C@@H](CCCNC(=N)N)C(=O)N[C@@H](CCC(N)=O)C(=O)N[C@@H](CCC(N)=O)C(N)=O)[C@@H](C)CC)[C@@H](C)CC)[C@@H](C)O)[C@@H](C)O)C(C)C)C(C)C` [Melittin]: the PLA2 activity is 219 ± 16.3 nano mol/min/ml with Human serum PLA2 (Human serum PLA2 eluted from MLT-Sepharose column), 192 ± 5.44 nano mol/min/ml in the assay with Human serum PLA2 (eluate Centricon 30 concentrated (5 times)) and 172 ± 8.73 nano mol/min/ml in the assay on Human serum PLA2 (eluate Centricon 30 pass through). For the same molecule, the “reduction in PLA2 activity in the presence of melittin” value in the assay on Human serum PLA2 (fractions after concentration by centricon 10 or 30) was 4 fold. Also, the “Inhibitory Potency” value in assay [1] (Table 2A, follows Table 2) came out at 80%. In addition, the “Phospholipase A2 activity B(× 10^−3) [14C]-phosphatidylcholine” value in assay [1] (peptide 1.0 μM, mean of three determinations) is on record as 0.055 ± 0.010 × 10^−3 μ moles/min/ml. Also, in assay [1] (rank order from Table 2), the “order of inhibitory potency” value was “MLT>G25>G22>G141>G27>G23”. The “Phospholipase A2 activity” value in the assay with PLA2 from snake venom [2] (setting [15]) was 61.5 ± 2.75 μmoles/min/mg of protein; in the assay with PLA2 from snake venom [2] (setting [16]), 59.13 ± 13.97 μmoles/min/mg of protein; in assay [3] (setting [15]), 0.06 ± 0.03 μmoles/min/mg of protein; in assay [3] (setting [16]), 1.51 ± 0.17 μmoles/min/mg of protein; on PLA2 from bee venom [5], 801 ± 55.0 μmoles/min/mg of protein and 1315.0 ± 48.2 μmoles/min/mg of protein; in [6] (setting [17]) it was 2.9 ± 0.0 × 10^−4 μmole/min ml. For the same molecule, the “Phospholipase A2 activity” value in assay [6] (setting [18]) was 4.7 ± 0.0 × 10^−4 μmole/min ml; in the assay with PLA2 from snake venom [7] (setting [17]) it was 1.41 ± 0.84 μmoles/min/mg of protein; in the assay with PLA2 from snake venom [7] (setting [18]), 0.05 ± 0.03 μmoles/min/mg of protein; in [8] (setting [17]), 3.6 ± 0.9 × 10^−5 μmoles/min/mg of protein; in [8] (setting [18]), 2.96 ± 0.0 × 10^−3 μmoles/min/mg of protein; in assay [10] (setting [15]), 5.5 ± 0.4 µmol/min/mL. Further, the “Phospholipase A2 activity” value in assay [10] (setting [16]) was determined as 43.65 ± 3.19 µmol/min/mL. The “type of inhibition of bee venom PLA2” value at PLA2 from bee venom [4] is “noncompetitive inhibitor”. The molecule also returned an EC50 at PLA2 from bee venom [5] of 20 nM. For the same molecule, at PLA2 from bee venom [5], the “amount of synthetic melittin required to inhibit maximal PLA2 activity” value is recorded as 30 mM. For the same molecule, the “effect on phospholipase D (PLD)” value is “stimulates PLD” with phospholipase D (PLD); “resulted in the formation of phosphatidic acid and release of arachidosic acid” in the assay with phospholipase D (PLD) (listed as synthetic melittin). Besides, the entries for the “Phospholipase A2 activity C [3H]-oleic acid-E. coli” value in assay [9] (peptide 1.0 μM), in assay [9] (peptide 5.0 μM) and in [9] (peptide 10 μM) were 0.50 ± 0.12 μ moles/min/ml, 0.12 ± 0.02 μ moles/min/ml and 0.06 ± 0.03 μ moles/min/ml, respectively.
As to “biotinylated synthetic melittin: biotinylated synthetic melittin used to coat microtiter plates”, the “interference of synovial fluid with streptavidin-peroxidase binding” value in the assay on synovial fluid PLA2 is given as “dose-dependent interference”.
Consider synthetic melittin (peptide), for which, in the assay with human serum PLA2 (human) [11], the Purification came to 1520 fold. Further, in assay [12], the Inhibitory Potency came to 80%. The reduction in PLA2 activity in the presence of melittin with human serum PLA2 (human) [13] stood at 4 fold.
On to GIGAVLKVLTTGLPALISWIKRKRQQ (modifications not checked) [synthetic melittin], for which the molar ratio of melittin to PLA2 at maximal inhibition (mol melittin per mol PLA2) in assay [14] stood at 30.
